Experimental data reported in PubChem BioAssay (NCI).
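All cell lines were grown in 96-well plates and treated with compound for 48 hours. Abbreviation: GI50, concentration required for 50% inhibition of growth. The concentration for full growth arrest is given as TGI.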

How the values were obtained:
Assay in all cases: inhibition of tumour cell growth, NCI panel, 48 h
HOP-62 NSCLC = test system: HOP-62 NSCLC
MDA-MB-231 breast = test system: MDA-MB-231 breast
OVCAR-8 ovarian = test system: OVCAR-8 ovarian
SN12C renal = test system: SN12C renal
SNB-75 CNS = test system: SNB-75 CNS
SW-620 colon = test system: SW-620 colon
U251 CNS = test system: U251 CNS
BT-549 breast = test system: BT-549 breast
NCI-H522 lung = test system: NCI-H522 lung

| SMILES | TGI (HOP-62 NSCLC) [µM] | TGI (MDA-MB-231 breast) [µM] | TGI (OVCAR-8 ovarian) [µM] | TGI (SN12C renal) [µM] | TGI (SNB-75 CNS) [µM] | TGI (SW-620 colon) [µM] | TGI (U251 CNS) [µM] | TGI (BT-549 breast) [µM] | TGI (NCI-H522 lung) [µM] | GI50 (BT-549 breast) [nM] | GI50 (NCI-H522 lung) [µM] | GI50 (OVCAR-8 ovarian) [µM] | GI50 (U251 CNS) [µM] | GI50 (HOP-62 NSCLC) [nM] | GI50 (SNB-75 CNS) [µM] | GI50 (SW-620 colon) [µM] |
| --- | --- | --- | --- | --- | --- | --- | --- | --- | --- | --- | --- | --- | --- | --- | --- | --- |
| Cc1ccc2c(=O)cc(-c3ccc(Cl)s3)[nH]c2n1 | > 100 | > 100 | > 53.8 | > 52.9 | > 27.9 | > 100 | > 100 | – | – | – | – | – | – | – | – | – |
| Nc1ccc(S(=O)(=O)c2ccc(NCN3C(=O)NC(=O)C(=O)C3=O)cc2)cc1 | > 100 | > 100 | > 100 | > 100 | – | > 100 | > 100 | > 100 | > 100 | – | – | – | – | – | – | – |
| Cc1csc(NC23CC4CC(CC(C4)C2)C3)[n+]1C(P(=O)([O-])O)P(=O)(O)O (configuration not stated) | > 100 | > 100 | > 100 | – | > 100 | > 100 | > 100 | > 100 | > 100 | – | – | – | – | – | – | – |
| CC(=C(c1ccccc1)c1ccccc1)N1C(=O)CC(=O)N1C | > 100 | – | > 100 | > 100 | > 100 | > 100 | > 100 | > 100 | – | – | – | – | – | – | – | – |
| NS(=O)(=O)c1ccc(/C=C/c2ccc(F)cc2)cc1 | 65.9 | 50.7 | 30 | > 100 | > 100 | > 100 | 45.7 | 4.92 | 27.6 | 205 | 4.81 | 15.2 | 7.93 | – | – | – |
| CCNC(=S)N=Nc1c(O)[nH]c2ccc([N+](=O)[O-])cc12 | > 100 | > 100 | > 100 | > 100 | – | > 100 | > 100 | > 100 | – | – | – | – | – | – | – | – |
| O=c1cc(N2CCCC2)[nH]c(=O)n1Cc1ccccc1 | > 100 | > 100 | > 100 | > 100 | > 100 | > 100 | > 100 | > 100 | > 100 | – | – | – | – | – | – | – |
| CCOC(=O)CCC(NC(=O)OCc1ccccc1)C(=O)NC(CCC(=O)OCC)C(=O)NC(CCC(=O)OCC)C(=O)NC(CCC(=O)OCC)C(=O)NC(CCC(=O)OCC)C(=O)NC(CCC(=O)OCC)C(=O)NC(CCC(=O)OCC)C(=O)OCC (configuration not stated) | > 100 | > 100 | > 100 | > 100 | > 100 | > 100 | > 100 | > 100 | > 100 | – | – | – | – | – | – | – |
| COC(OC)[C@@H]1OC[C@H](n2cnc3c(N)ncnc32)[C@H]1O | > 100 | > 100 | – | > 100 | > 100 | > 100 | > 100 | > 100 | – | – | – | – | – | – | – | – |
| CC(=O)N1CC(C)(C)c2c(C)c(O)c(C)c(C)c21 | > 100 | > 100 | > 100 | > 100 | > 100 | > 100 | > 100 | – | > 100 | – | – | – | – | – | – | – |
| O=C1C[C@@H](C(=O)OCc2ccccc2)NC(=O)C[C@@H](C(=O)OCc2ccccc2)NC(=O)C[C@@H](C(=O)OCc2ccccc2)N1 | > 88.5 | 70.9 | > 100 | > 100 | 13.7 | > 100 | > 100 | > 100 | > 100 | – | – | – | – | – | – | – |
| Cc1ccc(/C(O)=C/c2nc3ccccc3sc2=O)c(C)c1 | 97.3 | > 100 | > 100 | > 100 | – | – | > 100 | 79.6 | 62.1 | – | – | – | – | – | – | – |
| C=C/C(C)=C\CC1[C@](C)(O)CC[C@H]2C(C)(C)C(=O)CC[C@]12C (some centres not stated) | – | > 100 | > 100 | > 100 | > 100 | > 100 | > 100 | – | > 100 | – | – | – | – | – | – | – |
| CC1(C)N/C(=C\C=O)C(C)(C)N1O | > 100 | > 100 | > 100 | > 100 | – | > 100 | > 100 | – | – | – | – | – | – | – | – | – |
| O=C1C(Cl)=C(OCCCl)C(=O)c2c(O)ccc(O)c21 | 30.4 | 10.6 | 47.6 | 28 | 26.3 | 9.9 | 27.9 | 26.9 | – | – | – | – | – | – | – | – |
| COc1ccc(C2=Nc3cc(C)c(C)cc3NC(c3ccccc3)C2)cc1 (configuration not stated) | > 100 | > 100 | > 100 | > 100 | – | > 100 | > 100 | > 100 | > 100 | – | – | – | – | – | – | – |
| CO/N=C1\CC(NC(=O)CNC(=O)OC(C)(C)C)c2ccsc21 (configuration not stated) | > 100 | > 100 | > 100 | > 100 | > 100 | > 100 | > 100 | > 100 | – | – | – | – | – | – | – | – |
| COC(=O)C1(Cc2ccc3c(c2)CCC3)Cc2ccccc2C1O (configuration not stated) | 46.3 | 67.4 | 36 | 29.2 | – | 43.5 | 31.1 | 35.1 | 30.1 | – | – | – | – | – | – | – |

| SMILES | TGI (HOP-62 NSCLC) [µM] | TGI (MDA-MB-231 breast) [µM] | TGI (OVCAR-8 ovarian) [µM] | TGI (SN12C renal) [µM] | TGI (SNB-75 CNS) [µM] | TGI (SW-620 colon) [µM] | TGI (U251 CNS) [µM] | TGI (BT-549 breast) [µM] | TGI (NCI-H522 lung) [µM] | GI50 (BT-549 breast) [nM] | GI50 (NCI-H522 lung) [µM] | GI50 (OVCAR-8 ovarian) [µM] | GI50 (U251 CNS) [µM] | GI50 (HOP-62 NSCLC) [nM] | GI50 (SNB-75 CNS) [µM] | GI50 (SW-620 colon) [µM] |
| --- | --- | --- | --- | --- | --- | --- | --- | --- | --- | --- | --- | --- | --- | --- | --- | --- |
| CC(C)=NN/C(=N\S(=O)(=O)c1ccc(Oc2cccc(Cl)c2C#N)cc1)Nc1ccc(Cl)cc1 | > 100 | > 100 | > 100 | > 100 | – | > 100 | > 100 | > 100 | > 100 | – | – | – | – | – | – | – |
| Cc1cc(C)nc(SC2=C(Nc3ccc(C)c(Cl)c3)C(=O)N(Cc3ccccc3)C2=O)n1 | > 160 | – | > 160 | – | > 160 | > 160 | > 160 | > 160 | > 160 | > 160000 | > 160 | > 160 | > 160 | 1350 | > 160 | > 160 |
| O=S(Nc1ccccc1)c1ccc(N2CCOCC2)cc1 (configuration not stated) | > 100 | > 100 | > 100 | > 100 | – | > 100 | > 100 | > 100 | > 100 | – | – | – | – | – | – | – |
| COC(=O)C1CCC(=S)N1C(=O)c1ccccc1 (configuration not stated) | > 100 | > 100 | > 100 | – | > 100 | – | > 100 | > 100 | > 100 | – | – | – | – | – | – | – |
| CCCCC(=O)c1c(O)nc2sccn2c1=O | > 10 | > 10 | > 10 | > 10 | > 10 | > 10 | > 10 | – | > 10 | – | – | – | – | – | – | – |
| Cc1cc(S(=O)(=O)N/C(=C(\C#N)C(=O)c2ccc(Cl)cc2)[n+]2ccc(N(C)C)cc2)c([S-])cc1Cl | > 100 | > 100 | > 100 | > 100 | – | – | > 100 | > 100 | > 100 | – | – | – | – | – | – | – |
| COc1ccc(N2C(=O)CC(=O)N(C(=O)COc3ccc(OCC(=O)N4C(=O)CC(=O)N(c5ccc(OC)cc5)C4=S)cc3)C2=S)cc1 | – | > 100 | – | > 100 | > 100 | > 100 | > 100 | > 100 | > 100 | – | – | – | – | – | – | – |
| CC(C)CNc1nc2ncnc(N)c2[nH]1 | > 100 | > 100 | > 100 | > 100 | – | > 100 | > 100 | > 100 | > 100 | – | – | – | – | – | – | – |
| O=S(=O)(c1ccc(NC2=NC(c3ccc(O)cc3)(c3ccccc3O)c3ccccc32)cc1)c1ccc(NC2=NC(c3ccc(O)cc3)(c3ccccc3O)c3ccccc32)cc1 (configuration not stated) | > 100 | > 44.6 | > 40.7 | > 29.9 | > 27.5 | > 100 | > 100 | – | 4.76 | – | – | – | – | – | – | – |
| C[n+]1cccc2c(=O)c3ccccc3oc21 | > 100 | > 100 | > 100 | > 100 | > 100 | > 100 | > 100 | – | > 100 | – | – | – | – | – | – | – |
| CCOC(=O)c1nc2ccc(C(F)(F)F)cc2nc1Oc1cc(OC)c(OC)c(OC)c1 | > 100 | > 100 | > 100 | > 100 | 68.6 | > 100 | > 100 | > 100 | – | – | – | – | – | – | – | – |
| CCOc1ccc(N/C(=C(/C(Cl)=C(/Cl)N(CC)CC)[N+](=O)[O-])n2nnc3ccccc32)cc1 | > 100 | 25.2 | 32.7 | 49.6 | 51.2 | 27.3 | 28.1 | 49.4 | – | – | – | – | – | – | – | – |
| O=C1CCCCC/C1=C\c1ccc([N+](=O)[O-])cc1 | > 100 | 37.9 | > 100 | 59.6 | > 100 | > 100 | > 100 | 54.3 | – | – | – | – | – | – | – | – |
| C=C(C(N)=O)c1ccc([N+](=O)[O-])o1 | 46.8 | 29.8 | 10.6 | 22.4 | 37.1 | 32.3 | 34.6 | – | 4.24 | – | – | – | – | – | – | – |
| OCCO/N=C1\C(c2c(O)[nH]c3ccccc23)=Nc2ccccc21 | > 100 | – | > 100 | > 100 | > 100 | > 100 | > 100 | > 100 | > 100 | – | – | – | – | – | – | – |
| COc1cc([C@@H]2c3cc4c(cc3[C@@H](c3c(O)cc(O)c5c3O[C@H](c3ccc(O)c(O)c3)[C@@H](O)C5)[C@H]3COC(=O)[C@H]23)OCO4)cc(OC)c1OC | 3.76 | 3.28 | > 100 | > 100 | – | > 100 | 3.64 | > 100 | > 100 | – | – | – | – | – | – | – |
| CN(C)C(=O)OC1C(=O)N(C)c2ccc(Cl)cc2C2(c3ccccc3)N1C2(Cl)Cl (configuration not stated) | > 100 | – | > 100 | > 100 | > 100 | > 100 | > 100 | – | > 100 | – | – | – | – | – | – | – |
